“Also recorded” adds a separate entry of the source.

These results are taken from US9974782B2, “Phosphodiesterase inhibitors and uses thereof” (THE TRUSTEES OF COLUMBIA UNIVERSITY IN THE CITY OF NEW YORK, priority 2008, dated 2018).

In data set [1] the test system is hippocampal slices treated with Aβ42. Nature of the data set: LTP in hippocampal slices treated with 200 nM oligomeric Aβ42. It is filed as cell-based, mouse. To be noted: YF012403 50 nM for 10 min prior to the θ-burst. Here is the method: Following cutting hippocampal slices were transferred to a recording chamber where they were maintained at 29° C. and perfused with artificial cerebrospinal fluid (ACSF) continuously bubbled with 95% O2 and 5% CO2. The ACSF composition in mM was: 124.0 NaCl, 4.4 KCl, 1.0 Na2HPO4, 25.0 NaHCO3, 2.0 CaCl2, 2.0 MgSO4, 10.0 glucose. CA1 fEPSPs were recorded by placing both the stimulating and the recording electrodes in CA1 stratum radiatum. BST was assayed either by plotting the stimulus voltages against slopes of fEPSP, or by plotting the peak amplitude of the fiber volley against the slope of the fEPSP. A 15 min baseline was recorded every min at an intensity that evokes a response ˜35% of the maximum evoked response. LTP was induced using q-burst stimulation (4 pulses at 100 Hz, with the bursts repeated at 5 Hz and each tetanus including 3 ten-burst trains separated by 15 sec). Responses were recorded for 1 hr after tetanization and measured as field-excitatory-post-synaptic potential (fEPSP) slope expressed as percentage of baseline.
In these experiments YF012403 (the cyclopropyl lead compound) was directly given to the hippocampal slices through the perfusion system for 10 min prior to the theta burst. Aβ42 was given for 20 minutes prior to the theta burst. Oligomeric Aβ42 was prepared as described previously (Stine et al., 2003). […]

The next data set concerns J20 mice. Nature of the data set: Fear conditioning and RAWM in J20 mice. It is filed as in vivo, mouse.
In data set [2] the test system is isolated rabbit corpus cavernosum. To be noted: read-out: EC50, relaxant effect; cited from earlier work.
For data set [3] the following is noted: rodents; cited from earlier work.
The subject of the next data set is cGMP. To be noted: sildenafil 3 mg/kg; cited from earlier work.
In data set [4] the test system is human Aβ40 and Aβ42 levels. Nature of the data set: Determination of Aβ levels (ELISA of cerebral cortex). In general terms: In an ELISA, binding on a coated surface is turned into a signal by an enzyme label.
[5] abbreviates: 3-month-old APP/PS1, daily injections for 3 weeks.
Setting [6] is: APP/PS1 at 7-10 months, injections for 3 weeks at 3 months.

For `COc1ccc(CNc2c(CO)cnc3c(C4CC4)cc(C#N)cc23)cc1Cl` [YF012403, 4-(3-chloro-4-methoxybenzylamino)-8-cyclopropyl-3-(hydroxymethyl)-quinoline-6-carbonitrile], the “effect on LTP deficit in Aβ42-treated slices in words” value in data set [1] was “ameliorates the LTP deficit; also recorded: ameliorated; also recorded: reverses LTP impairment”.

Turning to `CCCc1nn(C)c2c(=O)[nH]c(-c3cc(S(=O)(=O)N4CCN(C)CC4)ccc3OCC)nc12` [sildenafil, 5-[2-ethoxy-5-(4-methyl-1-piperazinylsulphonyl)phenyl]-1-methyl-3-n-propyl-1,6-dihydro-7H-pyrazolo[4,3-d]pyrimidin-7-one], the “effect on contextual learning in words” value with J20 mice (3 mg/kg i.p. immediately after training) is “improved contextual learning”. For the same compound, in the data set with J20 mice (daily injection after training for 3 weeks), the “effect on spatial working memory in words” value was “improved spatial working memory”. Also, in data set [2], the EC50 was 8.7 nM. In data set [3], the in vivo half-life is 24 min. Besides, the “cGMP concentration in the hippocampus” value with cGMP was about 2.5 µM. Besides, the “minimum time needed for a positive effect on Aβ40 levels” value in data set [4] (3 mg/kg at 3 months of age, measured at 7-8 months) turned out to be 3 weeks. The “minimum time needed for a positive effect on Aβ40” value in data set [4] (3 mg/kg, measured immediately after treatment) came to 2 weeks. The “minimum effective dose that decreases Aβ40 and Aβ42 levels” value in data set [4] (3-month-old APP/PS1) is on record as 3 mg/kg. For the same compound, in data set [4] (setting [5]), the “Aβ40 as % of vehicle-treated APP/PS1 mice” value is about 64%, the Aβ40 level was determined as 1.71±0.22 ng/mg cortex, the “Aβ42 as % of vehicle-treated APP/PS1 mice” value is listed as about 80% and the Aβ42 level was determined as 3.56±0.23 ng/mg cortex. The “effect on Aβ levels in words” value in data set [4] (APP/PS1, 1.5 mg/kg for 3 weeks) is “did not decrease Aβ levels”. In addition, in data set [4] (setting [6]), the “Aβ40 as % of vehicle-treated APP/PS1 mice” value was about 65%, the Aβ40 level was found to be 49.59±7.93 ng/mg cortex, the “Aβ42 as % of vehicle-treated APP/PS1 mice” value is about 73% and the Aβ42 level was 32.55±3.27 ng/mg cortex. In data set [4] (treated at 3 months, measured at 7-10 months), the “minimum effective dose that decreases Aβ40 and Aβ42 levels” value is given as 3 mg/kg.

In general, EC50 refers to the concentration giving half of the maximal effect.
